Tests used:
Test in all cases: relative viability (nuclei count vs DMSO), 5 days (fraction); higher = more cells survive
IDH-C35 + Vorinostat = compound: Cc1ccccc1C(C(=O)NC1CCCCC1)N(C(=O)Cn1ccnc1C)c1cccc(F)c1 [IDH-C35] + O=C(CCCCCCC(=O)Nc1ccccc1)NO [Vorinostat] (partner 1 µM)
How it was run: (§1)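 Relative viability is defined as nuclei in treated wells over nuclei in vehicle wells. Duplicate plates were run and medians reported. Lung cancer cell lines in 1536-well plates were dosed by pin tool one day after seeding, with one drug or with a fixed anchor-drug dose plus five library-drug doses (not always all listed) in √10 steps, and nuclei were counted after 5 days.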

IDH-C35 + Phenformin = compound: Cc1ccccc1C(C(=O)NC1CCCCC1)N(C(=O)Cn1ccnc1C)c1cccc(F)c1 [IDH-C35] + N=C(N)NC(=N)NCCc1ccccc1 [Phenformin] (partner 250 µM)
How it was run: as §1

[1] = compound: CC1=C(C(=NN1)C)CC2=C(C3=C(S2)N(C(=O)N(C3=O)C)CC(C)C)C(=O)N4C[C@@H](CO4)O + CC(=O)c1c(C)c2cnc(Nc3ccc(N4CCNCC4)cn3)nc2n(C2CCCC2)c1=O [Palbociclib] (partner 0.5 µM)
How it was run: as §1

IDH-C35 + Decitabine = compound: Cc1ccccc1C(C(=O)NC1CCCCC1)N(C(=O)Cn1ccnc1C)c1cccc(F)c1 [IDH-C35] + Nc1ncn([C@H]2C[C@H](O)[C@@H](CO)O2)c(=O)n1 [Decitabine] (partner 2 µM)
How it was run: as §1

Cell Line: UMC-11
- relative viability (IDH-C35 + Vorinostat; first compound 0.08 µM): 0.373
- relative viability (IDH-C35 + Vorinostat; first compound 0.253 µM): 0.468
- relative viability (IDH-C35 + Vorinostat; first compound 0.8 µM): 0.435
- relative viability (IDH-C35 + Vorinostat; first compound 2.53 µM): 0.434
- relative viability (IDH-C35 + Vorinostat; first compound 8 µM): 0.46
- relative viability (IDH-C35 + Phenformin; first compound 0.08 µM): 0.317
- relative viability (IDH-C35 + Phenformin; first compound 0.253 µM): 0.337
- relative viability (IDH-C35 + Phenformin; first compound 0.8 µM): 0.33
- relative viability (IDH-C35 + Phenformin; first compound 2.53 µM): 0.313
- relative viability (IDH-C35 + Phenformin; first compound 8 µM): 0.291
- relative viability ([1]; first compound 0.0025 µM): 0.333
- relative viability ([1]; first compound 0.007906 µM): 0.31
- relative viability ([1]; first compound 0.025 µM): 0.296
- relative viability ([1]; first compound 0.07906 µM): 0.29
- relative viability ([1]; first compound 0.25 µM): 0.339
- relative viability (IDH-C35 + Decitabine; first compound 0.08 µM): 0.572
- relative viability (IDH-C35 + Decitabine; first compound 0.253 µM): 0.724
- relative viability (IDH-C35 + Decitabine; first compound 0.8 µM): 0.576
- relative viability (IDH-C35 + Decitabine; first compound 2.53 µM): 0.609
- relative viability (IDH-C35 + Decitabine; first compound 8 µM): 0.619

From the supplement of paper PMC10307832
